Results from patent publication US20160199524A1, “RADIOSENSITIVITY OF FLUOROPHORES AND USE OF RADIOPROTECTIVE AGENTS FOR DUAL-MODALITY IMAGING” (Immunomedics, Inc., priority 2015, published 2016).

Test: in vivo
Conditions: mouse, in vivo, iv
Protocol: Mice were necropsied at 1 and 3 h post injection, 7 mice per time point.
Biodistribution studies were performed in Taconic nude mice bearing subcutaneous LS174T tumor xenografts.
Mice were necropsied at 1 and 3 h post injection, 6 mice per time point.

[1] = Taconic nude, % ID/org Sm. Int.
[2] = nude (Taconic), 28 uCi, total radioactivity, % ID/g Lung

What does the source list for `NC(=O)[C@@H](CCCCNC(=O)CNC(=O)CCC(=O)NCCc1c[nH]cn1)NC(=O)[C@@H](Cc1ccc(O)cc1)NC(=O)[C@@H](CCCCNC(=O)CNC(=O)CCC(=O)NCCc1c[nH]cn1)NC(=O)Cc1ccc(CN2CCN(CC(=O)O)CCN(CC(=O)O)CC2)cc1` [Al^18F(IMP485)]?
tissue uptake dose at 1 h (Taconic nude, % ID/org Liver): 0.295 %ID; tissue uptake dose at 3 h (Taconic nude, % ID/org Lung): 0.035 %ID; tissue uptake dose at 1 h (Taconic nude, % ID/org Muscle): 0.012 %ID; tissue uptake dose at 3 h (Taconic nude, % ID/org Muscle): 0.002 %ID; tissue uptake dose at 1 h (Taconic nude, % ID/org Scapula): 0.095 %ID; tissue uptake dose at 1 h [1]: 0.586 %ID; tissue uptake dose at 3 h [1]: 0.059 %ID; tissue uptake dose at 1 h (Taconic nude, % ID/org Spleen): 0.02 %ID; tissue uptake dose at 3 h (Taconic nude, % ID/org Stomach): 0.01 %ID; tissue uptake dose at 1 h (Taconic nude, % ID/org Tumor): 8.03 %ID; tissue uptake at 1 h (nude (Taconic), 28 uCi, total radioactivity): 0.114 %ID/g; tissue uptake at 1 h (nude (Taconic), 28 uCi, total radioactivity, % ID/g Blood): 0.165 %ID/g; tissue uptake at 1 h (nude (Taconic), 28 uCi, total radioactivity, % ID/g Lg. Int.): 0.081 %ID/g; tissue uptake at 1 h (nude (Taconic), 28 uCi, total radioactivity, % ID/g Liver): 0.176 %ID/g; tissue uptake at 1 h [2]: 0.238 %ID/g; tissue uptake at 3 h [2]: 0.073 %ID/g; tissue uptake at 1 h (nude (Taconic), 28 uCi, total radioactivity, % ID/g Scapula, alone, 1 h post injection): 0.107 %ID/g; tissue uptake at 1 h (nude (Taconic), 28 uCi, total radioactivity, % ID/g Sm. Int., alone, 1 h post injection): 0.396 %ID/g; tissue uptake at 1 h (nude (Taconic), 28 uCi, total radioactivity, % ID/g Spleen, alone, 1 h post injection): 0.21 %ID/g; tissue uptake at 1 h (nude (Taconic), 28 uCi, total radioactivity, % ID/g Stomach, alone, 1 h post injection): 0.126 %ID/g; tissue uptake at 1 h (nude (Taconic), 28 uCi, total radioactivity, % ID/g Tumor, alone, 1 h post injection): 0.316 %ID/g; tissue uptake dose at 1 h (nude (Taconic), 28 uCi, total radioactivity, % ID/org Blood, alone, 1 h post injection): 0.268 %ID; tissue uptake dose at 1 h (nude (Taconic), 28 uCi, total radioactivity, % ID/org Kidney, alone, 1 h post injection): 0.499 %ID; tissue uptake dose at 1 h (nude (Taconic), 28 uCi, total radioactivity, % ID/org Lg. Int., alone, 1 h post injection): 0.041 %ID; tissue uptake dose at 1 h (nude (Taconic), 28 uCi, total radioactivity, % ID/org Liver, alone, 1 h post injection): 0.22 %ID; tissue uptake dose at 1 h (nude (Taconic), 28 uCi, total radioactivity, % ID/org Lung, alone, 1 h post injection): 0.033 %ID; tissue uptake dose at 1 h (nude (Taconic), 28 uCi, total radioactivity, % ID/org Scapula, alone, 1 h post injection): 0.006 %ID; tissue uptake dose at 1 h (nude (Taconic), 28 uCi, total radioactivity, % ID/org Sm. Int., alone, 1 h post injection): 0.353 %ID; tissue uptake dose at 1 h (nude (Taconic), 28 uCi, total radioactivity, % ID/org Spleen, alone, 1 h post injection): 0.018 %ID; tissue uptake dose at 1 h (nude (Taconic), 28 uCi, total radioactivity, % ID/org Stomach, alone, 1 h post injection): 0.057 %ID; tissue uptake dose at 1 h (nude (Taconic), 28 uCi, total radioactivity, % ID/org Tumor, alone, 1 h post injection): 0.081 %ID; tissue uptake at 3 h (nude (Taconic), total radioactivity, % ID/g Kidney): 2.22 %ID/g; tissue uptake at 3 h (nude (Taconic), total radioactivity, % ID/g Liver): 0.142 %ID/g; tissue uptake at 3 h (nude (Taconic), total radioactivity, % ID/g Scapula): 0.058 %ID/g; tissue uptake at 3 h (nude (Taconic), total radioactivity, % ID/g Spleen): 0.138 %ID/g; tissue uptake dose at 3 h (nude (Taconic), total radioactivity, % ID/org Kidney): 0.319 %ID; tissue uptake dose at 3 h (nude (Taconic), total radioactivity, % ID/org Liver): 0.178 %ID; tissue uptake dose at 3 h (nude (Taconic), total radioactivity, % ID/org Scapula): 0.008 %ID; tissue uptake dose at 3 h (nude (Taconic), total radioactivity, % ID/org Spleen): 0.011 %ID; tissue uptake dose at 3 h (nude (Taconic), total radioactivity, % ID/org Tumor): 8.13 %ID; tissue uptake at 3 h (nude, 28 uCi, total radioactivity, % ID/g Lg. Int.): 0.713 %ID/g; tissue uptake at 3 h (nude, 28 uCi, total radioactivity, % ID/g Liver): 0.095 %ID/g; tissue uptake at 3 h (nude, 28 uCi, total radioactivity, % ID/g Muscle): 0.013 %ID/g; tissue uptake at 3 h (nude, 28 uCi, total radioactivity, % ID/g Sm. Int., alone, 3 h post injection): 0.137 %ID/g; tissue uptake at 3 h (nude, 28 uCi, total radioactivity, % ID/g Spleen, alone, 3 h post injection): 0.065 %ID/g; tissue uptake at 3 h (nude, 28 uCi, total radioactivity, % ID/g Stomach, alone, 3 h post injection): 0.041 %ID/g; tissue uptake at 3 h (nude, 28 uCi, total radioactivity, % ID/g Tumor, alone, 3 h post injection): 0.088 %ID/g; tissue uptake dose at 3 h (nude, 28 uCi, total radioactivity, % ID/org Blood, alone, 3 h post injection): 0.013 %ID; tissue uptake dose at 3 h (nude, 28 uCi, total radioactivity, % ID/org Kidney, alone, 3 h post injection): 0.345 %ID; tissue uptake dose at 3 h (nude, 28 uCi, total radioactivity, % ID/org Lg. Int., alone, 3 h post injection): 0.408 %ID; tissue uptake dose at 3 h (nude, 28 uCi, total radioactivity, % ID/org Liver, alone, 3 h post injection): 0.114 %ID; tissue uptake dose at 3 h (nude, 28 uCi, total radioactivity, % ID/org Scapula, alone, 3 h post injection): 0.006 %ID; tissue uptake dose at 3 h (nude, 28 uCi, total radioactivity, % ID/org Sm. Int., alone, 3 h post injection): 0.119 %ID; tissue uptake dose at 3 h (nude, 28 uCi, total radioactivity, % ID/org Spleen, alone, 3 h post injection): 0.006 %ID; tissue uptake dose at 3 h (nude, 28 uCi, total radioactivity, % ID/org Stomach, alone, 3 h post injection): 0.016 %ID; tissue uptake dose at 3 h (nude, 28 uCi, total radioactivity, % ID/org Tumor, alone, 3 h post injection): 0.022 %ID; tissue uptake at 1 h (nude, total radioactivity, % ID/g Blood): 0.278 %ID/g; tissue uptake at 1 h (nude, total radioactivity, % ID/g Lung): 0.535 %ID/g; tissue uptake at 1 h (nude, total radioactivity, % ID/g Sm. Int.): 0.686 %ID/g; tissue uptake at 1 h (nude, total radioactivity, % ID/g Stomach): 0.534 %ID/g; tissue uptake dose at 1 h (nude, total radioactivity, % ID/org Blood): 0.456 %ID; tissue uptake dose at 1 h (nude, total radioactivity, % ID/org Lung): 0.075 %ID; tissue uptake dose at 1 h (nude, total radioactivity, % ID/org Stomach): 0.265 %ID
